Laboratory results published in patent US20250313548A1 (Actio Biosciences, Inc., priority 2023, published 2025).

Target: human, KCNT1 (Homo sapiens (Human), UniProt Q5JUK3)
Test: FLIPR Tl/K Flux Assay
Format: cell-based
Details: HEK293 cells stably expressing human KCNT1; Tl+ flux stimulated with EC80 of agonist Loxapine
In short: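 HEK293 cells stably expressing human KCNT1 were loaded with FLIPR potassium dye in HEPES/HBSS pH 7.4 with 5 mM probenecid, 1 h at 25 °C, then given test compound for 30 min at 25 °C. Tl+ flux was triggered with chloride-free buffer containing Tl+ and EC80 loxapine and read 160 s. IC50 came from Hill fits of % inhibition.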

human, KCNT1, sequence (Q5JUK3 whole entry): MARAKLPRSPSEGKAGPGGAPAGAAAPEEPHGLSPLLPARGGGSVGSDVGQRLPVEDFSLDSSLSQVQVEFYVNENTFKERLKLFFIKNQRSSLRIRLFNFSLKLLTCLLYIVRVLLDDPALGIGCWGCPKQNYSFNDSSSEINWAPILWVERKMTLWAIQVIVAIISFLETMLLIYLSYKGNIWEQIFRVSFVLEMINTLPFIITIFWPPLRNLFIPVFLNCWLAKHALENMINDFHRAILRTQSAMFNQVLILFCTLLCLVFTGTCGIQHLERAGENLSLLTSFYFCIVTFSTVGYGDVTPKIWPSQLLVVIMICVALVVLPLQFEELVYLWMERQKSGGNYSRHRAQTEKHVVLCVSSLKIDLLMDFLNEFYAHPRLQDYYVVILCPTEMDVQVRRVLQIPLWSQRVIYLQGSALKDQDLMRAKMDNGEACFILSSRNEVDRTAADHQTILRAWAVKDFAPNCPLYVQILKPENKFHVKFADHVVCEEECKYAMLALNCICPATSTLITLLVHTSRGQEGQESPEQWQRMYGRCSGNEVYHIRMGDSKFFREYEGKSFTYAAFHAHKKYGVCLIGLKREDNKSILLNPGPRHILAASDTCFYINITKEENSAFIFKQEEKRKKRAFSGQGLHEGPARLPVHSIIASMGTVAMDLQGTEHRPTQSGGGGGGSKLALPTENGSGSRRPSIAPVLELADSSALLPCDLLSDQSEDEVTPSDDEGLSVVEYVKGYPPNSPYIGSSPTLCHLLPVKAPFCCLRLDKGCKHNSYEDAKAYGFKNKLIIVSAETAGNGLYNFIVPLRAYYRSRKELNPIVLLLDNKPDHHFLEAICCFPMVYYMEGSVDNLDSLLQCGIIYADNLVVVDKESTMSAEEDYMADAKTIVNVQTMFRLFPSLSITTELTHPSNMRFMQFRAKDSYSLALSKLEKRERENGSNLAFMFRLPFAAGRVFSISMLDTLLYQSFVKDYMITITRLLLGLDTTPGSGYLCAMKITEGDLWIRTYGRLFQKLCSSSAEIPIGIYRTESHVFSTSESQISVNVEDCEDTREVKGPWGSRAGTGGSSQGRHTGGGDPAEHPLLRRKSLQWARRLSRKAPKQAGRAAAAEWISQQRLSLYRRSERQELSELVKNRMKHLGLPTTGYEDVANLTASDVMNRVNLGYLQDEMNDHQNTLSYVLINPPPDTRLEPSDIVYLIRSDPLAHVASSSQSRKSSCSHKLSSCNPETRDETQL

| Compound | IC50 [nM] |
| --- | --- |
| N#Cc1cccc(C(=O)N[C@H]2CCCn3nc(-c4cc(C(F)(F)F)ncc4F)cc32)c1 [Compound I-302a, (S)-3-Cyano-N-(2-(5-fluoro-2-(trifluoromethyl)pyridin-4-yl)-4,5,6,7-tetrahydropyrazolo[1,5-a]pyridin-4-yl)benzamide] | < 250 |
| Cc1cnc(C(F)(F)F)cc1-c1cc2n(n1)CCC[C@@H]2NC(=O)c1nc(C(F)(F)F)nn1C [Compound I-303a, (S)-1-Methyl-N-(2-(5-methyl-2-(trifluoromethyl)pyridin-4-yl)-4,5,6,7-tetrahydropyrazolo[1,5-a]pyridin-4-yl)-3-(trifluoromethyl)-1H-1,2,4-triazole-5-carboxamide] | < 250 |
| Cc1cnc(C(F)(F)F)cc1-n1cc2c(n1)CC[C@@H]2NC(=O)c1cc(C(F)(F)F)nn1C [Compound I-304a, (S)-1-Methyl-N-(2-(5-methyl-2-(trifluoromethyl)pyridin-4-yl)-2,4,5,6-tetrahydrocyclopenta[c]pyrazol-4-yl)-3-(trifluoromethyl)-1H-pyrazole-5-carboxamide] | < 250 |
| Cc1cc(C#N)cc(C(=O)NC2CCn3nc(-c4ccnc(C5CC5)c4)cc32)c1 (stereo not drawn) [Compound I-306a, 3-Cyano-N-(2-(2-cyclopropylpyridin-4-yl)-5,6-dihydro-4H-pyrrolo[1,2-b]pyrazol-4-yl)-5-methylbenzamide] | < 250 |
| Cn1nc(C(F)(F)F)cc1C(=O)N[C@H]1CCCn2nc(-c3cnnc(C(F)(F)F)c3)cc21 [Compound I-307a, (S)-1-Methyl-3-(trifluoromethyl)-N-(2-(6-(trifluoromethyl)pyridazin-4-yl)-4,5,6,7-tetrahydropyrazolo[1,5-a]pyridin-4-yl)-1H-pyrazole-5-carboxamide] | 500 to 1000 |
| Cn1nc(C(F)(F)F)nc1C(=O)N[C@H]1CCc2nn(-c3ccnc(C(F)(F)F)c3)cc21 [Compound I-308a, (S)-1-Methyl-3-(trifluoromethyl)-N-(2-(2-(trifluoromethyl)pyridin-4-yl)-2,4,5,6-tetrahydrocyclopenta[c]pyrazol-4-yl)-1H-1,2,4-triazole-5-carboxamide] | < 250 |
| N#Cc1cccc(C(=O)N[C@H]2CCn3nc(-c4ccnc(C5CC5)c4)cc32)c1 [Compound I-310a, (S)-3-Cyano-N-(2-(2-cyclopropylpyridin-4-yl)-5,6-dihydro-4H-pyrrolo[1,2-b]pyrazol-4-yl)benzamide] | < 250 |
| Cc1cnc(C(F)(F)F)cc1-c1cc2n(n1)CCCC[C@@H]2NC(=O)c1cc(C(F)(F)F)nn1C [Compound I-311a, (S)-1-Methyl-N-(2-(5-methyl-2-(trifluoromethyl)pyridin-4-yl)-5,6,7,8-tetrahydro-4H-pyrazolo[1,5-a]azepin-4-yl)-3-(trifluoromethyl)-1H-pyrazole-5-carboxamide] | < 250 |
| Cc1cnc(C(F)(F)F)cc1-c1cc2n(n1)CCCC[C@H]2NC(=O)c1cc(C(F)(F)F)nn1C [Compound I-311b] | > 1000 |
| COc1cc(-c2cc3n(n2)CCCC[C@@H]3NC(=O)c2cc(F)cc(C#N)c2)ccn1 [Compound I-312a, (S)-3-Cyano-5-fluoro-N-(2-(2-methoxypyridin-4-yl)-5,6,7,8-tetrahydro-4H-pyrazolo[1,5-a]azepin-4-yl)benzamide] | < 250 |
| COc1cc(-c2cc3n(n2)CCC[C@@H]3NC(=O)c2cc(F)cc(C#N)c2)ccn1 [Compound I-313a, (S)-3-Cyano-5-fluoro-N-(2-(2-methoxypyridin-4-yl)-4,5,6,7-tetrahydropyrazolo[1,5-a]pyridin-4-yl)benzamide] | < 250 |
| Cn1nc(C(F)(F)F)nc1C(=O)N[C@H]1CCn2nc(-c3ccnc(C(F)(F)F)c3)cc21 [Compound I-314a, (S)-1-Methyl-3-(trifluoromethyl)-N-(2-(2-(trifluoromethyl)pyridin-4-yl)-5,6-dihydro-4H-pyrrolo[1,2-b]pyrazol-4-yl)-1H-1,2,4-triazole-5-carboxamide] | < 250 |
| Cc1cc(-c2cc3n(n2)CCC[C@@H]3NC(=O)c2cc(C(F)(F)F)nn2C)cc(C2CC2)n1 [Compound I-315a, (S)-N-(2-(2-Cyclopropyl-6-methylpyridin-4-yl)-4,5,6,7-tetrahydropyrazolo[1,5-a]pyridin-4-yl)-1-methyl-3-(trifluoromethyl)-1H-pyrazole-5-carboxamide] | < 250 |
| Cn1nc(C(F)(F)F)cc1C(=O)N[C@H]1CCCn2nc(-c3nnc(C(F)(F)F)o3)cc21 [Compound I-316a, (S)-1-Methyl-3-(trifluoromethyl)-N-(2-(5-(trifluoromethyl)-1,3,4-oxadiazol-2-yl)-4,5,6,7-tetrahydropyrazolo[1,5-a]pyridin-4-yl)-1H-pyrazole-5-carboxamide] | 500 to 1000 |
| Cn1nc(C(F)(F)F)cc1C(=O)N[C@H]1CCCn2nc(-c3cnc(C(F)(F)F)o3)cc21 [Compound I-317a, (S)-1-Methyl-3-(trifluoromethyl)-N-(2-(2-(trifluoromethyl)oxazol-5-yl)-4,5,6,7-tetrahydropyrazolo[1,5-a]pyridin-4-yl)-1H-pyrazole-5-carboxamide] | 500 to 1000 |
| CCOc1cc(C(=O)N[C@H]2CCn3nc(-c4cc(C(F)(F)F)ncc4F)cc32)ccn1 [Compound I-318a, (S)-2-Ethoxy-N-(2-(5-fluoro-2-(trifluoromethyl)pyridin-4-yl)-5,6-dihydro-4H-pyrrolo[1,2-b]pyrazol-4-yl)isonicotinamide] | < 250 |
| N#Cc1cc(F)cc(C(=O)N[C@H]2CCCCn3nc(-c4ccnc(C(F)(F)F)c4)cc32)c1 [Compound I-319a, (S)-3-Cyano-5-fluoro-N-(2-(2-(trifluoromethyl)pyridin-4-yl)-5,6,7,8-tetrahydro-4H-pyrazolo[1,5-a]azepin-4-yl)benzamide] | < 250 |
| N#Cc1cc(F)cc(C(=O)N[C@H]2CCCn3nc(-c4ccnc(C(F)(F)F)c4)cc32)c1 [Compound I-320a, (S)-3-Cyano-5-fluoro-N-(2-(2-(trifluoromethyl)pyridin-4-yl)-4,5,6,7-tetrahydropyrazolo[1,5-a]pyridin-4-yl)benzamide] | < 250 |
| N#Cc1cncc(C(=O)N[C@H]2CCCn3nc(-c4ccnc(C(F)(F)F)c4)cc32)n1 [Compound I-321a, (S)-6-Cyano-N-(2-(2-(trifluoromethyl)pyridin-4-yl)-4,5,6,7-tetrahydropyrazolo[1,5-a]pyridin-4-yl)pyrazine-2-carboxamide] | < 250 |
| Cn1nc(C(F)(F)F)cc1C(=O)N[C@H]1CCCn2nc(-c3ccnc(CO)c3)cc21 [Compound I-322a, (S)—N-(2-(2-(Hydroxymethyl)pyridin-4-yl)-4,5,6,7-tetrahydropyrazolo[1,5-a]pyridin-4-yl)-1-methyl-3-(trifluoromethyl)-1H-pyrazole-5-carboxamide] | > 1000 |
| N#Cc1cc(F)cc(C(=O)N[C@H]2CCn3nc(-c4ccnc(C(F)(F)F)c4)cc32)c1 [Compound I-323a, (S)-3-Cyano-5-fluoro-N-(2-(2-(trifluoromethyl)pyridin-4-yl)-5,6-dihydro-4H-pyrrolo[1,2-b]pyrazol-4-yl)benzamide] | < 250 |
| Cn1nc(C(F)(F)F)nc1C(=O)N[C@H]1CCCCn2nc(-c3ccnc(C(F)(F)F)c3)cc21 [Compound I-324a, (S)-1-Methyl-3-(trifluoromethyl)-N-(2-(2-(trifluoromethyl)pyridin-4-yl)-5,6,7,8-tetrahydro-4H-pyrazolo[1,5-a]azepin-4-yl)-1H-1,2,4-triazole-5-carboxamide] | < 250 |
| Cc1nn(C(F)(F)F)cc1C(=O)N[C@H]1CCCn2nc(-c3ccnc(C(F)(F)F)c3)cc21 [Compound I-325a, (S)-3-Methyl-1-(trifluoromethyl)-N-(2-(2-(trifluoromethyl)pyridin-4-yl)-4,5,6,7-tetrahydropyrazolo[1,5-a]pyridin-4-yl)-1H-pyrazole-4-carboxamide] | < 250 |
| Cn1nc(C(F)(F)F)nc1C(=O)N[C@H]1CCCn2nc(-c3ccnc(C(F)(F)F)c3)cc21 [Compound I-326a, (S)-1-Methyl-3-(trifluoromethyl)-N-(2-(2-(trifluoromethyl)pyridin-4-yl)-4,5,6,7-tetrahydropyrazolo[1,5-a]pyridin-4-yl)-1H-1,2,4-triazole-5-carboxamide] | < 250 |
| O=C(N[C@H]1CCCn2nc(-c3ccnc(C(F)(F)F)c3)cc21)c1ccnc(C(F)(F)F)n1 [Compound I-327a, (S)-2-(Trifluoromethyl)-N-(2-(2-(trifluoromethyl)pyridin-4-yl)-4,5,6,7-tetrahydropyrazolo[1,5-a]pyridin-4-yl)pyrimidine-4-carboxamide] | < 250 |
| N#Cc1cc(C(=O)N[C@H]2CCCn3nc(-c4ccnc(C(F)(F)F)c4)cc32)ccn1 [Compound I-328a, (S)-2-Cyano-N-(2-(2-(trifluoromethyl)pyridin-4-yl)-4,5,6,7-tetrahydropyrazolo[1,5-a]pyridin-4-yl)isonicotinamide] | < 250 |
| COc1cc(C(=O)N[C@H]2CCCCn3nc(-c4ccnc(C(F)(F)F)c4)cc32)ccn1 [Compound I-329a, (S)-2-Methoxy-N-(2-(2-(trifluoromethyl)pyridin-4-yl)-5,6,7,8-tetrahydro-4H-pyrazolo[1,5-a]azepin-4-yl)isonicotinamide] | < 250 |
| COc1cc(C(=O)N[C@H]2CCCn3nc(-c4ccnc(C(F)(F)F)c4)cc32)ccn1 [Compound I-330a, (S)-2-Methoxy-N-(2-(2-(trifluoromethyl)pyridin-4-yl)-4,5,6,7-tetrahydropyrazolo[1,5-a]pyridin-4-yl)isonicotinamide] | < 250 |
| COc1cc(C(=O)N[C@H]2CCn3nc(-c4ccnc(C(F)(F)F)c4)cc32)ccn1 [Compound I-331a, (S)-2-Methoxy-N-(2-(2-(trifluoromethyl)pyridin-4-yl)-5,6-dihydro-4H-pyrrolo[1,2-b]pyrazol-4-yl)isonicotinamide] | < 250 |
| COc1cc(C(=O)N[C@H]2CCc3nn(-c4ccnc(C(F)(F)F)c4)cc32)ccn1 [Compound I-332a, (S)-2-Methoxy-N-(2-(2-(trifluoromethyl)pyridin-4-yl)-2,4,5,6-tetrahydrocyclopenta[c]pyrazol-4-yl)isonicotinamide] | < 250 |
